Legend:
[1] = target: T1, angiotensin I converting enzyme (Cavia porcellus, UniProt H0UWL7); assay: Inhibitory effect on angiotensin I-induced constriction in isolated guinea pig ileum (indirect inhibition of angiotensin I converting enzyme); type: cell-based; settings: angiotensin I 10^-8 M, 37° C.
T1 construct: isolated guinea pig ileum preparation; from tissue; host or cells: isolated guinea pig ileum
T1 sequence (H0UWL7 33-1302): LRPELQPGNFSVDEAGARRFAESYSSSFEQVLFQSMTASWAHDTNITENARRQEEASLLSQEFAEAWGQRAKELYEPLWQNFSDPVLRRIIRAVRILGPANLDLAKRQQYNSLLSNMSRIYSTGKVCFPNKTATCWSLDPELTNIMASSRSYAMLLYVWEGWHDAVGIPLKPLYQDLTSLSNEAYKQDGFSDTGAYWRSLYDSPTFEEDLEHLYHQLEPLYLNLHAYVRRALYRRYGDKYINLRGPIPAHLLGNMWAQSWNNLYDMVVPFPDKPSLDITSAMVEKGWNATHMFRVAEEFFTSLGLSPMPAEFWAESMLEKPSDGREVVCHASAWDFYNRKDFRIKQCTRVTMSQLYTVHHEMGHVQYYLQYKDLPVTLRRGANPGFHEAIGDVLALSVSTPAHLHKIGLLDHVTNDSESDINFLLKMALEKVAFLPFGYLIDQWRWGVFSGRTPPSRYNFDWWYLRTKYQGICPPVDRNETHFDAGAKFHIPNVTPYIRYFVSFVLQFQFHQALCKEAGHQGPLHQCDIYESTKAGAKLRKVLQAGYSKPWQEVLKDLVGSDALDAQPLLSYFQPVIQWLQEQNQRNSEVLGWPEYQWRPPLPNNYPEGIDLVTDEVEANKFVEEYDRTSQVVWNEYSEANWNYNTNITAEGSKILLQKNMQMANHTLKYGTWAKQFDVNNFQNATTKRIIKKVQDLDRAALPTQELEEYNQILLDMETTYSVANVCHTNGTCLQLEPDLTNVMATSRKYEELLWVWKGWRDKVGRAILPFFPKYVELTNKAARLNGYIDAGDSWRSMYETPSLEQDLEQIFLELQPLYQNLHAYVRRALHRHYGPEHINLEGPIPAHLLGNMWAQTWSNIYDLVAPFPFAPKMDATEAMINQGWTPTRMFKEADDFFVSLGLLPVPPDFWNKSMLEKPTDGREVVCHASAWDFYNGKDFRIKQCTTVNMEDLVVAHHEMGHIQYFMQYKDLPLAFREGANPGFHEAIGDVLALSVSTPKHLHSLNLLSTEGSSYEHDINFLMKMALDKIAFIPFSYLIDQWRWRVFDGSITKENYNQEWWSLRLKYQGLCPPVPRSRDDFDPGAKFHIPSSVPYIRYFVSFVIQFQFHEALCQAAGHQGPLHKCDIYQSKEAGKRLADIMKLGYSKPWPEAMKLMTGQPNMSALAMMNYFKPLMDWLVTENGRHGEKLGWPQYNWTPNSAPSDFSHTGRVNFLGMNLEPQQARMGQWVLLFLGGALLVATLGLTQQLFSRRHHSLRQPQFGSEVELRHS
Text: Experiment 1: Inhibitory effect on angiotensin I-induced constriction in isolated guinea pig ileum
According to the method of Goldberg et al (J. Pharmacol. Exp. Ther., vol. 204, No. 2, p. 271, 1977), the inhibitory effect on angiotensin I converting enzyme was indirectly examined as an antagonistic activity on angiotensin I-induced constriction in isolated guinea pig ileum preparation. Guinea pig ileum preparations, in the presence of 1 g load, were suspended in Magnus bath filled with Kreb's solution containing atropine and maintained at 37° C. by warming, and then bubbled with a mixed gas (95%O2 +5%CO2). Angiotensin I (10^-8 M)-induced constrictions were measured with a recorder through a force displacement transducer (Nippon Denki San-ei, 45169A). Inhibitory rates of the test compounds were indicated on a graph and the rate of 50% inhibition (IC50) was calculated.

[2] = tested on: angiotensin I-induced pressor response; assay: Effect on angiotensin I-induced pressor response in rats; type: in vivo, Wistar male rats; settings: 10 mg/kg, p.o.; for Inhibitory rate (%) of pressor response to angiotensin I at each hour: angiotensin I 300 ng/kg i.v., mean value±standard error
Protocol: Experiment 2: Effect on angiotensin I-induced pressor response in rats
Groups of 10 Wistar male rats weighing about 200 g were implanted with a catheter into the left carotid artery and femoral vein under ether anesthesia. More than 24 hours after operation, mean blood pressure was measured from the carotid artery with a pressure transducer (Nippon Denki San-ei, 142 type). Angiotensin I (300 ng/kg) was injected to the left femoral vein through catheter to induce pressor response. Then 10 mg/kg of the test compounds, suspended in 0.5% methylcellulose solution, were given orally. At every hour between 1 to 10 hours, and 24 hours after the administration, the pressor response was examined by the injection of angiotensin I. The inhibitory rate (%) against the pressor responses was determined and the results were summarized in Table 1. The values in the Table represent "mean value±standard error".

IC50 [1]	Structure (SMILES)	inhibitory action against the angiotensin I-induced pressor response, strength and duration vs CV-5975 ([2]; rats, comparison in words)	Inhibitory rate (%) of pressor response to angiotensin I at each hour ([2]; 1 hour)	Inhibitory rate (%) of pressor response to angiotensin I at each hour ([2]; 2 hours)	Inhibitory rate (%) of pressor response to angiotensin I at each hour ([2]; 3 hours)	Inhibitory rate (%) of pressor response to angiotensin I at each hour ([2]; 4 hours)	Inhibitory rate (%) of pressor response to angiotensin I at each hour ([2]; 5 hours)	Inhibitory rate (%) of pressor response to angiotensin I at each hour ([2]; 6 hours)	Inhibitory rate (%) of pressor response to angiotensin I at each hour ([2]; 7 hours)	Inhibitory rate (%) of pressor response to angiotensin I at each hour ([2]; 8 hours)	Inhibitory rate (%) of pressor response to angiotensin I at each hour ([2]; 9 hours)	Inhibitory rate (%) of pressor response to angiotensin I at each hour ([2]; 10 hours)	Inhibitory rate (%) of pressor response to angiotensin I at each hour ([2]; 24 hours)
1.6 nM	O.O=C(O)CN1C(=O)C(N[C@@H](CSCCC2CCNCC2)C(=O)O)CCc2ccccc21 (stereo partly drawn) [Example 7, 3-[1(R)-carboxy-2-{2-(4-piperidyl)ethylthio}ethyl]amino-2-oxo-2,3,4,5-tetrahydro-1H-1-benzazepine-1-acetic acid monohydrate]	exhibits stronger inhibitory action against the angiotensin I-induced pressor response and more long-lasting effect than C-5975	-96 ± 2%	-100 ± 0%	-94 ± 5%	-97 ± 3%	-100 ± 0%	-100 ± 0%	-100 ± 0%	-98 ± 2%	-100 ± 0%	-90 ± 6%	-77 ± 10%
3.5 nM	O=C(O)CN1C(=O)[C@@H](N[C@@H](CCCCC2CCNCC2)C(=O)O)CSc2ccccc21 [CV-5975, 3(R)-[1(S)-carboxy-5-(4-piperidyl)pentyl]amino-4-oxo-2,3,4,5-tetrahydro-1,5-benzothiazepine-5-acetic acid, reference compound]	–	-95 ± 3%	-95 ± 3%	-89 ± 7%	-85 ± 7%	-82 ± 8%	-89 ± 6%	-86 ± 6%	-80 ± 7%	-84 ± 7%	-75 ± 9%	-45 ± 10%
